Test results from ChEMBL document CHEMBL4842383 (J Med Chem, 2021).

Tests used:
MC-38 = experiment: Antitumor activity against mouse MC38 cells inoculated C57BL/6 mouse syngeneic model assessed as tumor growth inhibition at 100 mg/kg, po twice a day for 2 weeks by five days on/two days off schedule relative to control; assay type: functional; details: MC-38, po, 336 h, read-out: TGI
Mus musculus [1] = experiment: Immunomodulatory activity in mouse MC38 cells inoculated C57BL/6 mouse syngeneic model assessed as […] in M1 like TAM (CD86+ CD11b+ F4/80+)at 100 mg/kg, po twice a day for 2 weeks by five days on/two days off schedule relative to control; assay type: functional, MC-38
Mus musculus [2] = experiment: Immunomodulatory activity in mouse MC38 cells inoculated C57BL/6 mouse syngeneic model assessed as decrease in M2 like TAM (CD206+ CD11b F4/80+) at 100 mg/kg, po twice a day for 2 weeks by five days on/two days off schedule relative to control; assay type: functional, MC-38
[3] = Half life in Sprague-Dawley rat at 5 mg/kg, iv measured up to 24 hrs by LC-MS/MS analysis; assay type: ADME, organism-based; details: in vivo
[4] = Clearance in Sprague-Dawley rat at 5 mg/kg, iv measured up to 24 hrs by LC-MS/MS analysis; assay type: ADME, organism-based; details: in vivo
[5] = Volume of distribution at steady state in Sprague-Dawley rat at 5 mg/kg, iv measured up to 24 hrs by LC-MS/MS analysis; assay type: ADME, organism-based; details: in vivo, read-out: Vdss
[6] = Half life in Sprague-Dawley rat at 20 to 25 mg/kg, po measured up to 24 hrs by LC-MS/MS analysis; assay type: ADME, organism-based; details: in vivo, dose 20-25 mg/kg
[7] = Dose normalized Cmax in Sprague-Dawley rat at 20 to 25 mg/kg, po measured up to 24 hrs by LC-MS/MS analysis; assay type: ADME, organism-based; details: in vivo, dose 20-25 mg/kg
[8] = Tmax in Sprague-Dawley rat at 20 to 25 mg/kg, po measured up to 24 hrs by LC-MS/MS analysis; assay type: ADME, organism-based; details: in vivo, dose 20-25 mg/kg
[9] = Oral bioavailability in Sprague-Dawley rat at 20 to 25 mg/kg measured up to 24 hrs by LC-MS/MS analysis; assay type: ADME, organism-based; details: in vivo, dose 20-25 mg/kg
[10] = Toxicity in C57BL/6 mouse inoculated with mouse MC38 cells assessed as body weight loss at 100 mg/kg, po twice a day for 2 weeks by five days on/two days off schedule relative to control; assay type: organism-based, MC-38; details: in vivo, 336 h

half-life [3]: 2.4 h | clearance [4]: 8.9 mL/min/kg | Vd [5]: 1 L/kg | half-life [6]: 11.6 h | Cmax/dose [7]: 68 ng/mL | Tmax [8]: 0.5 h | bioavailability [9]: 34.9%
SMILES: CN(C)c1ccc2c(Oc3ccc(NC(=O)NCc4ccc(C(F)(F)F)nc4)cc3)ncnc2c1.CS(=O)(=O)O
inhibition in vivo at 100 mg/kg (MC-38): 59% | fold change (FC) (Mus musculus [1]): 3 | fold change (FC) (Mus musculus [2]): 2.5 | Activity [10]: Non-Toxic
